Results taken from article PMC7385489, “β-hydroxybutyrate and hydroxycarboxylic acid receptor 2 agonists activate the AKT, ERK and AMPK pathways, which are involved in bovine neutrophil chemotaxis” (Scientific Reports, 2020).

Target: hydroxycarboxylic acid receptor 2 (HCA2) (Bos taurus, UniProt G3N168)
Assay: Fura-2 calcium mobilization in native bovine neutrophils expressing HCA2
Assay type: cell-based

Chain of hydroxycarboxylic acid receptor 2 (HCA2) (G3N168 1-379): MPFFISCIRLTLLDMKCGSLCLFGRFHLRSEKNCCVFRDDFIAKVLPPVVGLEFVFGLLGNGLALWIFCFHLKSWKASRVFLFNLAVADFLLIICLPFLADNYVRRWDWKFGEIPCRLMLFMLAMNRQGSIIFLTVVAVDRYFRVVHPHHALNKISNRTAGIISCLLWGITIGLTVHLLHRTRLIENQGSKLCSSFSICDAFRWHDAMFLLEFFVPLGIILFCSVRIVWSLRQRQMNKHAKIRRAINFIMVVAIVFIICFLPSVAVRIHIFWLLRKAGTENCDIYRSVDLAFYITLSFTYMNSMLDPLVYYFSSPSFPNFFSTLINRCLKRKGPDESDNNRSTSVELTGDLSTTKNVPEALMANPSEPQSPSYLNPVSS

| SMILES | EC50 |
| --- | --- |
| CC(O)CC(=O)O (stereo not drawn) [BHB, β-hydroxybutyrate] | 2.65 mM |
| O=C(O)c1n[nH]c2c1C[C@H]1C[C@@H]21 [MK-1903, (1aR,5aR)1a,3,5,5a-Tetrahydro-1H-2,3-diaza-cyclopropa[a]pentalene-4-carboxylic acid] | 3.38e-05 mM |
